The source of these data is patent US7034040B2, “Fluorinated heterocyclic compounds and methods of synthesis” (R.T. Alamo Ventures I, priority 2002, dated 2006).

Assay [1] deals with Protein Serine/Threonine Kinase PKC, Non-Selective. Briefly: Protein serine/threonine kinase PKC, non-selective, enzyme assay. It counts as biochemical. Conditions: rat brain enzyme. The text has this:
In this example, monofluoroflosequinan was subjected to biochemical enzyme assays and radioligand binding assays to determine its percent inhibition of a variety of enzyme activities and its percent inhibition of specific binding. The methods used have been adapted from those described in the scientific literature, see Hidaka and Asano “Human blood platelet 3′:5′ cyclic nucleotide phosphodiesterase. Isolation of low-Km and high Km phosphodiesterase.” Biochem. Biophys. Acta 429:485 (1976); Nicholoson et al. “Differential modulation of tissue function and therapeutic potential of selective inhibitors of cyclic nucleotide phosphodiesterase isoenzymes” Trends Pharmacol. Sci. 12:19 (1991); Cortijo et al. “Investigation into the role of phosphodiesterase IV in bronchorelaxation, including studies with hyman bronchus.” Br. J Pharmacol. 108:562 (1993); Baehr et al. “Isolation and characterization of cGMP phosphodiesterase from bovine rod outer segments.” J. Biol. Chem. 254:11669 (1979), Gillespie and Beavo “Inhibition and stimulation of photoreceptor phosphodiesterase by dipyridamole and M&B 22,948” Molecular Pharm. 36:773 (1989); Tamaoki and Nakano “Potent and specific inhibitors of protein kinase C of microbial origin” Biotechnology 8:732 (1990); Wilkinson et al. “Isoenzyme specificity of bisindolymaleimides, selective inhibitors of protein kinase C” Biochem. J 294:335 (1993); Tamaki et al. “Staurosporine, a potent inhibitor of phospholipid/Ca++dependent protein kinase” Biochem. Biophys. Res. Comm, 135:397 (1986); Schoemaker and Langer “[3H]Diltiazem binding to calcium channel antagonist recognition sites in rate cerebral cortex” Eur. J Pharmacol. 111:273 (1985); Ehlert et al. “The binding of [3H]nitrendipine to receptors for calcium channel antagonists in the heart, cerebral cortex and ileum of rats.” Life Sci. 30:2191 (1982); Gould et al. “[3H]nitrendipine-labeled calcium channels discriminate inorganic calcium agonists and antagonists” Proc. Natl. Acad. Sci. USA 79:3656 (1982); Reynolds et al. “(−)−[3H]Desmethoxyverapamil labels multiple calcium channel modulator receptors in brain and skeletal muscle membranes: Differentiation by temperature and dihydropyridines” J Pharmacol. Exp. Ther. 237:731 (1986) and Worley et al. “Characterization of inositol triphosphate receptor binding in brain. Regulation by pH and calcium” J Biol. Chem. 262:12132 (1987). A brief summary of the conditions for each assay is provided below:
Protein Serine/Threonine Kinase PKC, Non-Selective: The enzyme was obtained from rat brain and the substrate was 370 μg/ml histone. The reaction was pre-incubated 5 min at 25° C., followed by a 15 min incubation at 25° C. in a buffer of 20 mM Tris-HCl, 10 mM MgCl2.Ho and 0.1 mM CaCl2.2HO, pH 7.4. [^32P]histone was quantitated.

The subject of the next assay is PDE1. Kind of assay: PDE1 enzyme inhibition assay. It counts as biochemical. The note with it: 1000 μM compound, 1% DMSO vehicle, bovine heart enzyme. The text has this:
(§1) In this example, monofluoroflosequinan was subjected to biochemical enzyme assays and radioligand binding assays to determine its percent inhibition of a variety of enzyme activities and its percent inhibition of specific binding. The methods used have been adapted from those described in the scientific literature, see Hidaka and Asano “Human blood platelet 3′:5′ cyclic nucleotide phosphodiesterase. Isolation of low-Km and high Km phosphodiesterase.” Biochem. Biophys. Acta 429:485 (1976); Nicholoson et al. “Differential modulation of tissue function and therapeutic potential of selective inhibitors of cyclic nucleotide phosphodiesterase isoenzymes” Trends Pharmacol. Sci. 12:19 (1991); Cortijo et al. “Investigation into the role of phosphodiesterase IV in bronchorelaxation, including studies with hyman bronchus.” Br. J Pharmacol. 108:562 (1993); Baehr et al. “Isolation and characterization of cGMP phosphodiesterase from bovine rod outer segments.” J. Biol. Chem. 254:11669 (1979), Gillespie and Beavo “Inhibition and stimulation of photoreceptor phosphodiesterase by dipyridamole and M&B 22,948” Molecular Pharm. […]
PDE1: PDE1 partially purified from bovine heart was used. […] Unhydrolyzed cAMP was bound to AGI-X2 resin, and the remaining [^3H]adenosine in the aqueous phase was quantitated by scintillation counting.

For a further assay, the target named is T1, PDE3 (Homo sapiens, UniProt Q14432).
T1 construct: PDE3 partially purified from human platelets was used; from tissue; host or cells: human platelets
Kind of assay: PDE3 enzyme inhibition assay. It counts as biochemical. Conditions: 1000 μM compound, 1% DMSO vehicle, human platelet enzyme.
Excerpt: as §1
PDE3: PDE3 partially purified from human platelets was used. […] Unhydrolyzed cAMP was bound to AGI-X2 resin, and the remaining [^3H]adenosine in the aqueous phase was quantitated by scintillation counting.

The test system of another assay is PDE4. Briefly: PDE4 enzyme inhibition assay. Conditions: 1000 μM compound, 1% DMSO vehicle, human U-937 cell enzyme. Type of assay: biochemical.
Excerpt: as §1
PDE4: PDE4 partially purified from human U-937 pronocytic cells was used. […] Unhydrolyzed cAMP was bound to AGI-X2 resin, and the remaining [^3H]adenosine in the aqueous phase was quantitated by scintillation counting.

The target of assay [2] is Calcium Channel Type L, Dihydropyridine. Conditions: Wistar rat cerebral cortex, 90 min at 25° C.; read-out: Kd (historical value of the radioligand); cited from earlier work.

The inhibition is the drop in the measured response relative to a control, in per cent. In general, Kd refers to the free concentration of one partner at which half of the binding sites on the other are occupied at equilibrium, for simple one-to-one binding.

The structures appear in SMILES notation.

T1 sequence (Q14432 whole entry): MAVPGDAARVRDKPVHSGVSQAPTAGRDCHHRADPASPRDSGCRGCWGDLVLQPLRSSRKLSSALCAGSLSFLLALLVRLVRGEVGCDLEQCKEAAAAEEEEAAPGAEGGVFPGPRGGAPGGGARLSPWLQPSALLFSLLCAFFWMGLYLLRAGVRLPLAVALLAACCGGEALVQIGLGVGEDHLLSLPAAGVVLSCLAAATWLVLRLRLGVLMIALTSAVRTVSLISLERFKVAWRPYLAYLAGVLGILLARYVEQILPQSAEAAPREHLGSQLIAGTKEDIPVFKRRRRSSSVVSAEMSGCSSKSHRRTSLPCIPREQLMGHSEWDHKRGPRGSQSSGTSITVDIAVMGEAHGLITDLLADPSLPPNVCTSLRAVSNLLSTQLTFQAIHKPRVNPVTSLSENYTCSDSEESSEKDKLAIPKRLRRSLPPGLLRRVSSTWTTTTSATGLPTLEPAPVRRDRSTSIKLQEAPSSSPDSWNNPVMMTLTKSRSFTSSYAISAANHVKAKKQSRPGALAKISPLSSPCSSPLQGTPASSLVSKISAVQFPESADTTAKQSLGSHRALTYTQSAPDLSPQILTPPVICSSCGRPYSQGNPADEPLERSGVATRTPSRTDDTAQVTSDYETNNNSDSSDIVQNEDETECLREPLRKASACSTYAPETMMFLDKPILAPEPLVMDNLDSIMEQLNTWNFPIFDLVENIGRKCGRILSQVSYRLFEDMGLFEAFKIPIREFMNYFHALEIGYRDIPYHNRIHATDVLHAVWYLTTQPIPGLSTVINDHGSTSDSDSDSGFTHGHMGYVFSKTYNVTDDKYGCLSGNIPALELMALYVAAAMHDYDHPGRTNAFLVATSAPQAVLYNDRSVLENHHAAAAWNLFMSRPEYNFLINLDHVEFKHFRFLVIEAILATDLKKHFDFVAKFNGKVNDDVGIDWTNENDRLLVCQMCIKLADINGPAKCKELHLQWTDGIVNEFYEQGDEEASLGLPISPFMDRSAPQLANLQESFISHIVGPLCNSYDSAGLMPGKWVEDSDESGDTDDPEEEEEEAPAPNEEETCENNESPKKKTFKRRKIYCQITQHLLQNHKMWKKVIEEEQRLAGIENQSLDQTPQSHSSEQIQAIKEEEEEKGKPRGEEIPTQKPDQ

Regarding `Cn1cc([S+]([O-])CF)c(=O)c2ccc(F)cc21` (racemic) [monofluoroflosequinan, 7-fluoro-3-fluoromethylsulfinyl-1-methyl-4-quinolone], the “inhibition of protein serine/threonine kinase, PKC, non-selective” value in assay [1] (100 μM compound) is reported as “Significant inhibition”; in assay [1] (300 μM compound), “Significant inhibition”; in assay [1] (1000 μM compound, 1% DMSO vehicle), “Significant inhibition”.
With `Cn1cc(S(=O)(=O)C(F)F)c(=O)c2ccc(F)cc21` [3-difluoromethylsulfonyl-7-fluoro-1-methyl-4-quinolone], in the assay with PDE1, the “inhibition of PDE1” value is “greater than 50%”. This molecule also gave an inhibition at 1000 µM against PDE3 greater than 50%. In addition, the “inhibition of PDE4” value with PDE4 is reported as “greater than 50%”.
Turning to `CCOC(=O)C1=C(C)NC(C)=C(C(=O)OC)C1c1cccc([N+](=O)[O-])c1` (stereo not shown) [^3H Nitrendipine], in assay [2], the Kd was 0.18 nM.
For `Cn1cc([S+]([O-])C(F)F)c(=O)c2ccc(F)cc21` (stereo not shown) [difluoroflosequinan, 3-difluoromethylsulfinyl-7-fluoro-1-methyl-4-quinolone], the “inhibition of PDE1” value in the assay with PDE1 is “greater than 50%”. The molecule also had an inhibition at 1000 µM on PDE3 greater than 50%. For the same molecule, in assay [1] (1000 μM compound), the “inhibition of protein serine/threonine kinase, PKC, non-selective” value is reported as “greater than 50%”.
